Assays:
[1] = molar heat capacity at constant pressure; details: 101.33 kPa, Liquid, Small sample (50 mg) DSC
[2] = 101.33 kPa, Liquid; for viscosity: Concentric cylinders viscometry; for mass density: Vibrating tube method

CCCCn1cc[n+](C)c1.[Cl][Fe-]([Cl])([Cl])[Cl] [1-butyl-3-methylimidazolium tetrachloroferrate]
Details | mass density [kg/m3] | molar heat capacity at constant pressure [J/K/mol] | viscosity [mPa·s]
[1], 308.16 K | – | 436.39 | –
[1], 313.16 K | – | 446.09 | –
[1], 318.16 K | – | 446.39 | –
[1], 323.16 K | – | 447.13 | –
[1], 328.22 K | – | 449.63 | –
[1], 333.22 K | – | 451.03 | –
[1], 338.19 K | – | 452.53 | –
[1], 343.18 K | – | 456.2 | –
[1], 348.25 K | – | 457.4 | –
[1], 353.18 K | – | 457.95 | –
[1], 358.25 K | – | 459.31 | –
[1], 363.18 K | – | 460.92 | –
[1], 368.17 K | – | 461.57 | –
[1], 373.21 K | – | 462.88 | –
[1], 378.2 K | – | 463.64 | –
[1], 383.17 K | – | 465.82 | –
[1], 388.2 K | – | 465.66 | –
[1], 393.17 K | – | 466.11 | –
[1], 398.2 K | – | 467.83 | –
[1], 403.2 K | – | 469.12 | –
[1], 408.16 K | – | 469.7 | –
[1], 413.19 K | – | 469.42 | –
[1], 418.19 K | – | 471.44 | –
[1], 423.22 K | – | 470.84 | –
[2], 278.15 K | – | – | 103.3
[2], 283.15 K | – | – | 79.5
[2], 288.15 K | – | – | 62.6
[2], 293.15 K | 1370 | – | 50.2
[2], 294.15 K | 1369.2 | – | –
[2], 295.15 K | 1368.3 | – | –
[2], 296.15 K | 1367.5 | – | –
[2], 297.15 K | 1366.7 | – | –
[2], 298.15 K | 1365.8 | – | 41
[2], 299.15 K | 1365 | – | –
[2], 300.15 K | 1364.2 | – | –
[2], 301.15 K | 1363.3 | – | –
[2], 302.15 K | 1362.5 | – | –
[2], 303.15 K | 1361.7 | – | 33.9
[2], 304.15 K | 1360.9 | – | –
[2], 305.15 K | 1360.1 | – | –
[2], 306.15 K | 1359.2 | – | –
[2], 307.15 K | 1358.4 | – | –
[2], 308.15 K | 1357.6 | – | 28.5
[2], 309.15 K | 1356.8 | – | –
[2], 310.15 K | 1356 | – | –
[2], 311.15 K | 1355.1 | – | –
[2], 312.15 K | 1354.3 | – | –
[2], 313.15 K | 1353.5 | – | 24.2
[2], 314.15 K | 1352.7 | – | –
[2], 315.15 K | 1351.9 | – | –
[2], 316.15 K | 1351.1 | – | –
[2], 317.15 K | 1350.3 | – | –
[2], 318.15 K | 1349.5 | – | 20.8
[2], 319.15 K | 1348.7 | – | –
[2], 320.15 K | 1347.8 | – | –
[2], 321.15 K | 1347 | – | –
[2], 322.15 K | 1346.2 | – | –
[2], 323.15 K | 1345.4 | – | 18.1
[2], 324.15 K | 1344.6 | – | –
[2], 325.15 K | 1343.8 | – | –
[2], 326.15 K | 1343 | – | –
[2], 327.15 K | 1342.2 | – | –
[2], 328.15 K | 1341.4 | – | 15.8
[2], 329.15 K | 1340.6 | – | –
[2], 330.15 K | 1339.8 | – | –
[2], 331.15 K | 1339 | – | –
[2], 332.15 K | 1338.2 | – | –
[2], 333.15 K | 1337.4 | – | 13.9
[2], 334.15 K | 1336.6 | – | –
[2], 335.15 K | 1335.9 | – | –
[2], 336.15 K | 1335.1 | – | –
[2], 337.15 K | 1334.3 | – | –
[2], 338.15 K | 1333.5 | – | 12.4
[2], 339.15 K | 1332.7 | – | –
[2], 340.15 K | 1331.9 | – | –
[2], 341.15 K | 1331.1 | – | –
[2], 342.15 K | 1330.3 | – | –
[2], 343.15 K | 1329.5 | – | 11.1
[2], 344.15 K | 1328.7 | – | –
[2], 345.15 K | 1328 | – | –
[2], 346.15 K | 1327.2 | – | –
[2], 347.15 K | 1326.4 | – | –
[2], 348.15 K | 1325.6 | – | 10
[2], 349.15 K | 1324.8 | – | –
[2], 350.15 K | 1324 | – | –
[2], 351.15 K | 1323.3 | – | –
[2], 352.15 K | 1322.5 | – | –
[2], 353.15 K | 1321.7 | – | 9
[2], 354.15 K | 1320.9 | – | –
[2], 355.15 K | 1320.1 | – | –
[2], 356.15 K | 1319.4 | – | –
[2], 357.15 K | 1318.6 | – | –
[2], 358.15 K | 1317.8 | – | 8.2
[2], 359.15 K | 1317 | – | –
[2], 360.15 K | 1316.3 | – | –
[2], 361.15 K | 1315.5 | – | –
[2], 362.15 K | 1314.7 | – | –
[2], 363.15 K | 1313.9 | – | 7.5
[2], 368.15 K | – | – | 6.9
[2], 373.15 K | – | – | 6.3

Reference: the NIST ThermoML archive (doi:10.1016/j.fluid.2013.03.001)
